Values of other authors, collected in patent US20070254941A1, “Subtantially pure ropinirole hydrochloride, polymorphic form of ropinirole and process for their preparation” (Glenmark Pharmaceuticals Limited, priority 2006, published 2007).
Structures can show the parent of a compound that is named as a salt.

Columns and labels:
D3 dopamine receptor [1] = target: T1, D3 dopamine receptor (Homo sapiens, UniProt P35462); conditions: D3 versus D2 or D4
D2 dopamine receptor = D2 dopamine receptor (Homo sapiens, UniProt P14416)
Sequence of D2 dopamine receptor (P14416 whole entry): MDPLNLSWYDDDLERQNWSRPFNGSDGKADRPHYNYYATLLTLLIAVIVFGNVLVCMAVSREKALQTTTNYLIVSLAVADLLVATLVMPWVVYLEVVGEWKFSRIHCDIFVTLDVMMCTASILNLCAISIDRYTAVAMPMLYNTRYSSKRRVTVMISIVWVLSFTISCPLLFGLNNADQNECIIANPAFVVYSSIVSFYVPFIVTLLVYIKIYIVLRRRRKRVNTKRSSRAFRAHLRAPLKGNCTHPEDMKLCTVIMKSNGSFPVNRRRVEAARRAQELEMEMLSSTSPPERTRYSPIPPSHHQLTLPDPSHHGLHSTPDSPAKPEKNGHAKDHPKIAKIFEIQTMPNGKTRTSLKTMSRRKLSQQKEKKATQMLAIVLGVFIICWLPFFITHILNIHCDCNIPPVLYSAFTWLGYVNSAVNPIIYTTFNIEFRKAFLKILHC

D3 dopamine receptor [2] = target: T1, D3 dopamine receptor

T1 sequence (P35462 whole entry): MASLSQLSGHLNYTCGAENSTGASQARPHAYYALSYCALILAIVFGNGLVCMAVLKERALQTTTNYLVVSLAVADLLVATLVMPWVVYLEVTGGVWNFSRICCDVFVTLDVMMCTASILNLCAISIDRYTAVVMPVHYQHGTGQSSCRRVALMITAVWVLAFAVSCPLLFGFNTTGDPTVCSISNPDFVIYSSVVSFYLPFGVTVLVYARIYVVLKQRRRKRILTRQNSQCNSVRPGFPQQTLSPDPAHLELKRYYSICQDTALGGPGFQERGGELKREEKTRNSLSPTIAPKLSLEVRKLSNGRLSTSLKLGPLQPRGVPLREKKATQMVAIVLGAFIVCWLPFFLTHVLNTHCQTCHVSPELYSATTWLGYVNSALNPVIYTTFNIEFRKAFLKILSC

CCCN(CCC)CCc1cccc2c1CC(=O)N2 [Ropinirole hydrochloride]
affinity for D3 relative to D2 or D4 receptor subtypes (D3 dopamine receptor [1]): higher affinity to D3 than to D2 or D4 | intrinsic activity at D2 dopamine receptor subtype (D2 dopamine receptor): full intrinsic activity | intrinsic activity at D3 dopamine receptor subtype (D3 dopamine receptor [2]): full intrinsic activity
